Reference: patent US12378186B2, “Inhibitors of meprin α and β” (VIVORYON THERAPEUTICS N.V., priority 2016, dated 2025)
Like-named read-outs stand apart in the source and are kept apart here.

Columns and labels:
[1] = biological target: T1, hMeprin β (Homo sapiens, UniProt Q16820); assay: Enzymatic assay, cleavage of internally quenched peptide substrate, hMeprin β; assay type: biochemical
T1 sequence (Q16820 62-701): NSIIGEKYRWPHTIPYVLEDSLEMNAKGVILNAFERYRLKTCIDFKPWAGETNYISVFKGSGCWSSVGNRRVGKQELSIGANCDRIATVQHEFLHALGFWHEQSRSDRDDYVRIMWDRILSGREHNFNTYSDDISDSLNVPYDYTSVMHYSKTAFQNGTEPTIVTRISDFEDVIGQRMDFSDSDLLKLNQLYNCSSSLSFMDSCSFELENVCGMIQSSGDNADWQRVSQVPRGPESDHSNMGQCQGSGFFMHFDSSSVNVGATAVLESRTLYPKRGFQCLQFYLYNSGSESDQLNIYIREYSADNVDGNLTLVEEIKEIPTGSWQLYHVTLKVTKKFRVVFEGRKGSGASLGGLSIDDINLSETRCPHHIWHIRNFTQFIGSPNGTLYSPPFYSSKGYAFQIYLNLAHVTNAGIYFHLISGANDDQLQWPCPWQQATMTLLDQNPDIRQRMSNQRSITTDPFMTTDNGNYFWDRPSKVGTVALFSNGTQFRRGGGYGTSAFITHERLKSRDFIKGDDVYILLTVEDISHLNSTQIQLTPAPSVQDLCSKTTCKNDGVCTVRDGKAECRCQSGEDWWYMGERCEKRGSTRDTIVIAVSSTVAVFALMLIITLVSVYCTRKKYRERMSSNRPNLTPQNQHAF
Protocol: (§1) A typical assay of 250 μl total volume measured in black 96 well plates consisted of 100 μl buffer, 50 μl enzyme at a final concentration of 5e-8 M to 5e-9 M, 50 μl substrate (0.15 to 80 μM, in buffer, 0.5% DMSO) and 50 μl inhibitor solution (in buffer, 1% DMSO). In case of 125 μl assay volume (black 96 half area well plates) all volumes were cut in half. Enzymatic activity of ADAMs was measured in 384 well plates with 60 μl total assay volume consisting of 20 μl inhibitor, 20 μl buffer, 10 μl enzyme and 10 μl substrate.
(§2) Ki values were assessed combining 4 substrate concentrations (5-40 μM) with at least 5 inhibitor concentrations. […] Initial velocities were determined and converted into concentration units applying a standard curve obtained after complete conversion of different substrate concentrations under assay conditions. All measurements were performed using a fluorescence plate reader (FLUOstar OPTIMA, BMG Labtech) at 30° C. The kinetic parameters were determined at least in duplicates on separate days. The excitation/emission wavelength was 340/420 nm. The kinetic data was evaluated using GraFit software (version 7.0.3, Erithacus Software).
(§3) The following compounds according to the present invention were synthesized using the above general procedures. IC50 refers to the average IC50 values measured as described above, SD (IC50) refers to the standard deviation of the average IC50 values, Ki refers to the average K; values measured as described above, and SD (Ki) to the standard deviation of the average Ki values.

[2] = biological target: T2, hMeprin α (Homo sapiens, UniProt Q16819); assay: biochemical; assay type: biochemical
T2 sequence (Q16819 66-746): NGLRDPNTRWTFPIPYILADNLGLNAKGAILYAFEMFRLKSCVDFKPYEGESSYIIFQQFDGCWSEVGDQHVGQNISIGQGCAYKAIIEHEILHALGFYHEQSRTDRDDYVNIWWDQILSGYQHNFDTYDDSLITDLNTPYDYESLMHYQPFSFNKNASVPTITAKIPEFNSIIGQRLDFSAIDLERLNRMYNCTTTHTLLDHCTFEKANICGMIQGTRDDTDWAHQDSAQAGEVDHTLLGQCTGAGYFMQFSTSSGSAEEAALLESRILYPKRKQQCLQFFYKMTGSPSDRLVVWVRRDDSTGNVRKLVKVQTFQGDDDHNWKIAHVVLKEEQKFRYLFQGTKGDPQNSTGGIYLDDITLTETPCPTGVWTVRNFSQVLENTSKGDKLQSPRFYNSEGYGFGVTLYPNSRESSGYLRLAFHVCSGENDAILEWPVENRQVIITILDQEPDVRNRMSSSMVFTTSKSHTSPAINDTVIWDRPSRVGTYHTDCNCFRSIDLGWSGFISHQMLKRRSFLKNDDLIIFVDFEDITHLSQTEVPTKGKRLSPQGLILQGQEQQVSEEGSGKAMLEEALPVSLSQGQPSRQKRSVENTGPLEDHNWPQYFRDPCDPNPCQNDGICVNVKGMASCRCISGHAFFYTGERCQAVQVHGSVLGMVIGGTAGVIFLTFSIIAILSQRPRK
Protocol: as §1, §2, §3

[3] = average IC50, 10 μM substrate, 30° C., 40 mM Tris pH 8.0, read-out: Meprin Beta IC50
[4] = average IC50, 10 μM substrate, 30° C., 40 mM HEPES pH 7.4, read-out: Meprin Alpha IC50
[5] = average Ki, 4 substrate concentrations (5-40 μM), 30° C., 40 mM HEPES pH 7.4, read-out: Meprin Alpha Ki

O=C(CN(Cc1c(F)ccc(O)c1F)Cc1c(F)ccc(O)c1F)NO [Example 49, 2-[bis[(2,6-difluoro-3-hydroxy-phenyl)methyl]-amino]ethanehydroxamic acid]
Ki [1]: 1.96 µM | IC50 [1, 3]: 5.51 µM | IC50 [2]: 5.6 µM | Ki [2]: 0.998 µM

O=C(CN(Cc1ccc(F)c(O)c1)Cc1ccc(F)c(O)c1)NO [Example 50, 2-[bis[(4-fluoro-3-hydroxy-phenyl)methyl]-amino]ethanehydroxamic acid]
Ki [1]: 0.352 µM | IC50 [1, 3]: 1.06 µM | IC50 [2, 4]: 0.986 µM | Ki [2, 5]: 0.306 µM

O=C(CN(Cc1cccc(O)c1F)Cc1cccc(O)c1F)NO [Example 51, 2-[bis[(2-fluoro-3-hydroxy-phenyl)methyl]-amino]ethanehydroxamic acid]
Ki [1]: 1.17 µM | IC50 [1, 3]: 2.91 µM | IC50 [2, 4]: 1.21 µM | Ki [2, 5]: 0.335 µM

O=C(CN(Cc1ccc(Cl)c(O)c1F)Cc1ccc(Cl)c(O)c1F)NO [Example 52, 2-[bis[(4-chloro-2-fluoro-3-hydroxy-phenyl)-methyl]amino]ethanehydroxamic acid]
Ki [1]: 0.008 µM | Ki [2, 5]: 0.104 µM

COc1ccc(CN(CC(=O)NO)Cc2ccc(F)c(O)c2F)cc1 [Example 53, 2-[(2,4-difluoro-3-hydroxy-phenyl)methyl-[(4-methoxyphenyl)methyl]amino]ethanehydroxamic acid]
IC50 [1]: 0.331 µM | Ki [1]: 0.158 µM | IC50 [2, 4]: 0.995 µM | Ki [2, 5]: 0.328 µM

CCOC(=O)c1cccc(CN(CC(=O)NO)Cc2cccc(C(=O)OCC)c2)c1 [Example 54, ethyl 3-[[(3-ethoxycarbonylphenyl)methyl-[2-(hydroxyamino)-2-oxo-ethyl]amino]methyl]benzoate]
Ki [1]: 1.76 µM | IC50 [1, 3]: 94.9 µM | IC50 [2, 4]: 7.27 µM

COc1c(F)ccc(CN(CC(=O)NO)Cc2ccc(F)c(OC)c2F)c1F [Example 58, 2-[bis[(2,4-difluoro-3-methoxy-phenyl)methyl]-amino]ethanehydroxamic acid]
IC50 [1, 3]: 18.2 µM | IC50 [2, 4]: 2.83 µM | Ki [2, 5]: 0.726 µM

CCOC(=O)c1cccc(CN(CC(=O)NO)Cc2cccc(C(=O)O)c2)c1 [Example 59, 3-[[(3-ethoxycarbonylphenyl)methyl-[2-(hydroxyamino)-2-oxo-ethyl]amino]methyl]benzoic acid]
IC50 [1]: 0.839 µM | Ki [1]: 0.271 µM | IC50 [2, 4]: 4.13 µM | Ki [2, 5]: 1.47 µM

O=C(CN(Cc1ccc(Cl)cc1F)Cc1ccc(Cl)cc1F)NO [Example 60, 2-[bis[(4-chloro-2-fluoro-phenyl)methyl]-amino]ethanehydroxamic acid]
IC50 [1]: 138 µM | IC50 [2, 4]: 3.06 µM | Ki [2, 5]: 0.838 µM

COc1cc(CN(CC(=O)NO)Cc2cc(OC)c(OC)c(OC)c2)cc(OC)c1OC [Example 61, 2-[bis[(3,4,5-trimethoxyphenyl)methyl]-amino]-ethanehydroxamic acid]
IC50 [1]: 20.1 µM | IC50 [2, 4]: 5.32 µM | Ki [2, 5]: 1.18 µM

O=C(CN(Cc1ccc2c(c1)OCCO2)Cc1ccc2c(c1)OCCO2)NO [Example 63, 2-[bis(2,3-dihydro-1,4-benzodioxin-6-yl-methyl)amino]ethanehydroxamic acid]
IC50 [1]: 30.6 µM | IC50 [2, 4]: 1.52 µM | Ki [2, 5]: 0.297 µM

COc1c(F)ccc(CN(CCC(=O)NO)Cc2ccc(F)c(OC)c2F)c1F [Example 64, 3-[bis[(2,4-difluoro-3-methoxy-phenyl)methyl]-amino]propanehydroxamic acid]
IC50 [1]: 18.7 µM | IC50 [2, 4]: 0.881 µM | Ki [2, 5]: 0.332 µM

COc1cc(CN(CCC(=O)NO)Cc2cc(OC)c(OC)c(OC)c2)cc(OC)c1OC [Example 66, 3-[bis[(3,4,5-trimethoxyphenyl)methyl]amino]-propanehydroxamic acid]
IC50 [1]: 90 µM | IC50 [2, 4]: 19.8 µM

COc1cc(CN(CC(=O)NO)Cc2cc(OC)c3c(c2)OCO3)cc2c1OCO2 [Example 68, 2-[bis[(7-methoxy-1,3-benzodioxol-5-yl)methyl]amino]ethanehydroxamic acid]
IC50 [1]: 4.57 µM | Ki [1]: 1.82 µM | IC50 [2, 4]: 0.554 µM | Ki [2, 5]: 0.164 µM

O=C(CCN(Cc1ccc2c(c1)OCCO2)Cc1ccc2c(c1)OCCO2)NO [Example 69, 3-[bis(2,3-dihydro-1,4-benzodioxin-6-ylmethyl)amino]propanehydroxamic acid]
IC50 [1]: 7.59 µM | Ki [1]: 3.74 µM | IC50 [2, 4]: 0.4 µM | Ki [2, 5]: 0.117 µM

N#Cc1cccc(CN(CCC(=O)NO)Cc2cccc(C#N)c2)c1 [Example 70, 3-[bis[(3-cyanophenyl)methyl]amino]-propanehydroxamic acid]
IC50 [1]: 33.1 µM | IC50 [2, 4]: 2.34 µM | Ki [2, 5]: 0.696 µM

O=C(CCN(Cc1ccccc1)Cc1ccccc1)NO [Example 71, 3-(dibenzylamino) propanehydroxamic acid]
IC50 [1]: 75.5 µM | IC50 [2, 4]: 1.68 µM | Ki [2, 5]: 0.612 µM

O=C(CN(Cc1cccc(OC(F)F)c1)Cc1cccc(OC(F)F)c1)NO [Example 72]
IC50 [1, 3]: 57 µM | IC50 [2, 4]: 5.68 µM | Ki [2, 5]: 2.15 µM

O=C(CN(Cc1cccnc1)Cc1cccnc1)NO [Example 73, 2-[bis(3-pyridylmethyl)amino]ethanehydroxamic acid]
IC50 [1]: 21.7 µM | IC50 [2, 4]: 1.96 µM | Ki [2, 5]: 0.637 µM

O=C(CCN(Cc1ccc2c(c1)OCO2)Cc1ccc2c(c1)OCO2)NO [Example 74, 3-[bis(1,3-benzodioxol-5-ylmethyl)amino]-propanehydroxamic acid]
Ki [1]: 1.15 µM | IC50 [2, 4]: 0.15 µM | Ki [2, 5]: 0.052 µM
